Reference: patent US9156845B2, “4-(substituted amino)-7H-pyrrolo[2,3-d] pyrimidines as LRRK2 inhibitors” (Pfizer Inc., priority 2012, dated 2015)
Where two headings read alike, the source gives them in different places.

Legend:
Assay in all cases: ActivX kinase probe assay (human PBMC)
Format in all cases: binding
PIP4K2C = PIP4K2C (Homo sapiens (Human), UniProt Q8TBX8)
PYK2 = PYK2 (Homo sapiens (Human), UniProt Q14289); conditions: read-out: percent inhibition
OSR1 = OSR1 (Homo sapiens (Human), UniProt O95747); conditions: read-out: percent inhibition
IRAK1 = IRAK1 (Homo sapiens (Human), UniProt P51617); conditions: read-out: percent inhibition
Sequence of IRAK1 (P51617 whole entry): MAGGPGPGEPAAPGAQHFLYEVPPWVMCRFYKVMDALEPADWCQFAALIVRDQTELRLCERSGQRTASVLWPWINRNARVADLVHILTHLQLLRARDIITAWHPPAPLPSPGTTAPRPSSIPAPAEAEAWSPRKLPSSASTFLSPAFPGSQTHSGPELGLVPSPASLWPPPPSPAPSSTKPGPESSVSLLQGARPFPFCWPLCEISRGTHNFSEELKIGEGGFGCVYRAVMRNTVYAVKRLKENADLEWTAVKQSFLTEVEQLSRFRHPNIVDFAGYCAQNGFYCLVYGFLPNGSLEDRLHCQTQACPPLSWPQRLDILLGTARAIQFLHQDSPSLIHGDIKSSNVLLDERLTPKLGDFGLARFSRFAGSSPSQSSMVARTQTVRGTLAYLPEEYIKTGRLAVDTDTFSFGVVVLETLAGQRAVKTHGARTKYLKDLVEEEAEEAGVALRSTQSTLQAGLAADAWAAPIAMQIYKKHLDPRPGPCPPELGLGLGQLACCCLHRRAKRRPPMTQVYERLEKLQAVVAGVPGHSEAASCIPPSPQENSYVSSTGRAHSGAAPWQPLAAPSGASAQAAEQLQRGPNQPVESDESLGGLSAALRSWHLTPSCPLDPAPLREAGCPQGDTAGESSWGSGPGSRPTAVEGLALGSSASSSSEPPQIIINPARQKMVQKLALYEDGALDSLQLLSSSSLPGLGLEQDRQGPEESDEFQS

GPRK6 = GPRK6 (Homo sapiens (Human), UniProt P43250); conditions: read-out: percent inhibition
GCN2 = GCN2 (Homo sapiens (Human), UniProt Q9P2K8); conditions: read-out: percent inhibition
JNK1, JNK2, JNK3 = system: JNK1, JNK2, JNK3
CaMK1a = CaMK1a (Homo sapiens (Human), UniProt Q14012); conditions: read-out: percent inhibition
p70S6Kb = p70S6Kb (Homo sapiens (Human), UniProt Q9UBS0); conditions: read-out: percent inhibition
MST3 = MST3 (Homo sapiens (Human), UniProt Q9Y6E0); conditions: read-out: percent inhibition
JAK1 domain2 = JAK1 domain2 (Homo sapiens (Human), UniProt P23458); conditions: read-out: percent inhibition
MAP2K3 = MAP2K3 (Homo sapiens (Human), UniProt P46734); conditions: read-out: percent inhibition
MAP3K5 = MAP3K5 (Homo sapiens (Human), UniProt Q99683); conditions: read-out: percent inhibition
FYN = FYN (Homo sapiens (Human), UniProt P06241); conditions: read-out: percent inhibition
SRC = SRC (Homo sapiens (Human), UniProt P12931); conditions: read-out: percent inhibition
EphA1 = EphA1 (Homo sapiens (Human), UniProt P21709); conditions: read-out: percent inhibition
Sequence of EphA1 (P21709 26-976): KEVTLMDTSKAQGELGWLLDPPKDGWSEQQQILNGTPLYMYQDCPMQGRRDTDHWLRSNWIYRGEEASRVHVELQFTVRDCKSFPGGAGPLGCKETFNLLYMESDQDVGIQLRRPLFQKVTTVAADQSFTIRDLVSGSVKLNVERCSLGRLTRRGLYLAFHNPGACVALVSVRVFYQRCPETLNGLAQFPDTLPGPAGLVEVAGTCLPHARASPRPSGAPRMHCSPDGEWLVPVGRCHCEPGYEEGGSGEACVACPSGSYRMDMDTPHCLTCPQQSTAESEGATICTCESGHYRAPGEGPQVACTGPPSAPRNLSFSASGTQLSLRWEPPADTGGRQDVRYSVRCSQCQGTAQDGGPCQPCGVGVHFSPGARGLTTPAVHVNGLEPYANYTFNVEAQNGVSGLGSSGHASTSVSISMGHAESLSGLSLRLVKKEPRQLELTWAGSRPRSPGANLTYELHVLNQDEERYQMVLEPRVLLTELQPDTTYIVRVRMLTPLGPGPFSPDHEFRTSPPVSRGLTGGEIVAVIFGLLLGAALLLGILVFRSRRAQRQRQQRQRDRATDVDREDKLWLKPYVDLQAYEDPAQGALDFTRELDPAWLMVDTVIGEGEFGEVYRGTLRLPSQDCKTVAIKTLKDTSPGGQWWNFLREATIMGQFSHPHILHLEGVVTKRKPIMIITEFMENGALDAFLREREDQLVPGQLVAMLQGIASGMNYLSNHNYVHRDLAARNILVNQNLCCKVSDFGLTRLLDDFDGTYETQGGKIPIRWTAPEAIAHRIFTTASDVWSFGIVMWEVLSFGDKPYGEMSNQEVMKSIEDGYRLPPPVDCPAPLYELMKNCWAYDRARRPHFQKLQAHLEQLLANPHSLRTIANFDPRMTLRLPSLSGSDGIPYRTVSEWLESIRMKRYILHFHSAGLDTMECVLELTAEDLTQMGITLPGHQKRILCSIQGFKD

p70S6K = p70S6K (Homo sapiens (Human), UniProt P23443); conditions: read-out: percent inhibition
IKKe = IKKe (Homo sapiens (Human), UniProt Q14164); conditions: read-out: percent inhibition
TAO1, TAO3 = system: TAO1, TAO3
RSK1, RSK2, RSK3 domain1 = system: RSK1, RSK2, RSK3 domain1
CDK2 = CDK2 (Homo sapiens (Human), UniProt P24941); conditions: read-out: percent inhibition
RSK2 domain1 = RSK2 domain1 (Homo sapiens (Human), UniProt P51812); conditions: read-out: percent inhibition
Sequence of RSK2 domain1 (P51812 whole entry, the tested form may be a part): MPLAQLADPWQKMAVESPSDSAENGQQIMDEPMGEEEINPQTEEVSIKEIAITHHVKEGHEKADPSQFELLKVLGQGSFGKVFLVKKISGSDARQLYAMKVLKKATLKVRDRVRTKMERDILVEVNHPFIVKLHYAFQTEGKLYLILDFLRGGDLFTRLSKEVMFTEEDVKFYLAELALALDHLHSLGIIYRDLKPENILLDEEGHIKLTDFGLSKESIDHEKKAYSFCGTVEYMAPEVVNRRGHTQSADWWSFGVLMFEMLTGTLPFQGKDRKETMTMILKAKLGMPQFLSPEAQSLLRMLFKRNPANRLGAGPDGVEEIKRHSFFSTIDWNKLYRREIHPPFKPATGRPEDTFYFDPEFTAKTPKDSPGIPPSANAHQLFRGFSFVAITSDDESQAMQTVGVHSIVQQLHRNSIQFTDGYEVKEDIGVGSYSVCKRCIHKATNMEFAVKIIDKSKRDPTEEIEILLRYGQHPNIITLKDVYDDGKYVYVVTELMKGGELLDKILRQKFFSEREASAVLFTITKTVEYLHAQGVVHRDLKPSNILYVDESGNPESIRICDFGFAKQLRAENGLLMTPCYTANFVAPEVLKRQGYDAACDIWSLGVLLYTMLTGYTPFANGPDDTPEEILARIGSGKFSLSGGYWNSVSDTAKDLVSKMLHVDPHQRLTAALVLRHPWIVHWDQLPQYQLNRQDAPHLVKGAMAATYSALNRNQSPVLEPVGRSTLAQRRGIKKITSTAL

MAST3 = MAST3 (Homo sapiens (Human), UniProt O60307); conditions: read-out: percent inhibition
LATS1 = LATS1 (Homo sapiens (Human), UniProt O95835); conditions: read-out: percent inhibition
Sequence of LATS1 (O95835 whole entry): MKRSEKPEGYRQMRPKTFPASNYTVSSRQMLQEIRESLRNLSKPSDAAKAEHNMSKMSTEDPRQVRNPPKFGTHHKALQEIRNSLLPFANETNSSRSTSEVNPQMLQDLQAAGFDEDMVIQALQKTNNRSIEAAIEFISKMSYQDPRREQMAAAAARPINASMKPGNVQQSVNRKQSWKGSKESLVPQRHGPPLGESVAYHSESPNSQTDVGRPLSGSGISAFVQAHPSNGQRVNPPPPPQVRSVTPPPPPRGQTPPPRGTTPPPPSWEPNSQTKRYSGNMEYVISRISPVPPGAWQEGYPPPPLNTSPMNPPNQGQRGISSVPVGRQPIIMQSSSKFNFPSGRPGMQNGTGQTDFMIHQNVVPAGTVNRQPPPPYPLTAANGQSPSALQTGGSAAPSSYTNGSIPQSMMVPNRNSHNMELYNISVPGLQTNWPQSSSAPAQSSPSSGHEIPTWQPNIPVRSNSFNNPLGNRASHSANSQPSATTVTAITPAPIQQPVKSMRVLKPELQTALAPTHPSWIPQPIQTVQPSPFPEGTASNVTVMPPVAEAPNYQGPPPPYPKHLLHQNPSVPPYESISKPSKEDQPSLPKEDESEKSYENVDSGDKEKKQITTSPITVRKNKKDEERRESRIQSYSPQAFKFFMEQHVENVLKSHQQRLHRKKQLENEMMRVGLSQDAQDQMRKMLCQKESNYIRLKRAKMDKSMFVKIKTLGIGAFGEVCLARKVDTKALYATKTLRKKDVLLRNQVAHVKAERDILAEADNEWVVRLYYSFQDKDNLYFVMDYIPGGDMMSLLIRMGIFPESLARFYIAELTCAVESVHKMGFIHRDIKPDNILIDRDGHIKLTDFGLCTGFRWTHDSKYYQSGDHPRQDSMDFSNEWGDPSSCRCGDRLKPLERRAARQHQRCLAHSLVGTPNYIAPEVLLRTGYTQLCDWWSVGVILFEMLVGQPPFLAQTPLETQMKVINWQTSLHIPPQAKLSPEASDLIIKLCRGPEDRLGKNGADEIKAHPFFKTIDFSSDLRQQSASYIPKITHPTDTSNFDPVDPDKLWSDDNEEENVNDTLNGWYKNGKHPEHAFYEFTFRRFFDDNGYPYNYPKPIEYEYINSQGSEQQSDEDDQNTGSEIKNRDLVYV

MARK2 = MARK2 (Homo sapiens (Human), UniProt Q7KZI7); conditions: read-out: percent inhibition
Sequence of MARK2 (Q7KZI7 whole entry): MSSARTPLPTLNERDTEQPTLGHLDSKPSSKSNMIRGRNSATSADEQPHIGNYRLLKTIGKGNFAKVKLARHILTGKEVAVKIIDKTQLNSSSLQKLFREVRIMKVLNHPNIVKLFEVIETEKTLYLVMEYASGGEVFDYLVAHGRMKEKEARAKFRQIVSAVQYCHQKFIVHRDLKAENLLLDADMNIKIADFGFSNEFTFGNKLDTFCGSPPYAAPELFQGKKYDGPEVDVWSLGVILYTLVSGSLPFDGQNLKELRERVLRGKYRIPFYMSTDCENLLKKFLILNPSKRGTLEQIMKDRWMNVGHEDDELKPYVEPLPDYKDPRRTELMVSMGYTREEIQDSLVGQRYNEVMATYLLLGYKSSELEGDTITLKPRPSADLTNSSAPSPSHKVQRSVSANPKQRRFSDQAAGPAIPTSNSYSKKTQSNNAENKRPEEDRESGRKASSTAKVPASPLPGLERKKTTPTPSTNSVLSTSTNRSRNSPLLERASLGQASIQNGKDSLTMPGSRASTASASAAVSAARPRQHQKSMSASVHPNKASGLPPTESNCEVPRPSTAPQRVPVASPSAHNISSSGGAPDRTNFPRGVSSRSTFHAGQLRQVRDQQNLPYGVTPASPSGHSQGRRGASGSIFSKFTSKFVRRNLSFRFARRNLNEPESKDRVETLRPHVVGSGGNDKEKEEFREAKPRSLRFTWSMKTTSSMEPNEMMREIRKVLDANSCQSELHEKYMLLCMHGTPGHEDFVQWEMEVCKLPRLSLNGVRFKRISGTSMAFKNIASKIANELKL

AKT2, AKT3 = system: AKT2, AKT3
AMPKa1, AMPKa2 = system: AMPKa1, AMPKa2
JAK1 = JAK1 (Homo sapiens (Human), UniProt P23458); conditions: read-out: percent inhibition
MAP2K1 = MAP2K1 (Homo sapiens (Human), UniProt Q02750); conditions: read-out: percent inhibition
BRAF = BRAF (Homo sapiens (Human), UniProt P15056); conditions: read-out: percent inhibition
HPK1 = HPK1 (Homo sapiens (Human), UniProt Q92918); conditions: read-out: percent inhibition
LKB1 = LKB1 (Homo sapiens (Human), UniProt Q15831); conditions: read-out: percent inhibition
IRAK3 = IRAK3 (Homo sapiens (Human), UniProt Q9Y616); conditions: read-out: percent inhibition
Sequence of IRAK3 (Q9Y616 whole entry): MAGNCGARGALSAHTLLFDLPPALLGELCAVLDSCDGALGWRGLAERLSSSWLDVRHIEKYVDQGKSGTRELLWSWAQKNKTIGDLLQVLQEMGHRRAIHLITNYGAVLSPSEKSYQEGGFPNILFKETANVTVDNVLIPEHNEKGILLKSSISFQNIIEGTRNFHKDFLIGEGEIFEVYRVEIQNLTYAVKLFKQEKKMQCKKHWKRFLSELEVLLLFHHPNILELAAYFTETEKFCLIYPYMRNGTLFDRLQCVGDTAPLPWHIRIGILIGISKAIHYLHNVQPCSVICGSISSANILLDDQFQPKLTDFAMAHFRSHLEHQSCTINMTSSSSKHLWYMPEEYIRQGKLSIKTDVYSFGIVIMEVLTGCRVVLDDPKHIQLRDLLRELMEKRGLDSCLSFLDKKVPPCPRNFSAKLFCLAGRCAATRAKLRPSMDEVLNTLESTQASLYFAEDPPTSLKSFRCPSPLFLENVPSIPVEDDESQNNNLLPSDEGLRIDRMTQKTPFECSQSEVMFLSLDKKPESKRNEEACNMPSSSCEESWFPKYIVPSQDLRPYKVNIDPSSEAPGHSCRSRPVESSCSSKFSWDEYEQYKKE

CaMK2d = CaMK2d (Homo sapiens (Human), UniProt Q13557); conditions: read-out: percent inhibition
[1] = PIP4K2C (first line of two), read-out: percent inhibition
[2] = PIP4K2C (second line of two), read-out: percent inhibition
[3] = read-out: percent inhibition, PIP4K2C (first line of two)
[4] = read-out: percent inhibition, PIP4K2C (second line of two)

## Cn1cc(-c2c[nH]c3ncnc(N4CCOCC4)c23)cn1 [Example 1, 5-(1-Methyl-1H-pyrazol-4-yl)-4-(morpholin-4-yl)-7H-pyrrolo[2,3-d]pyrimidine]
PIP4K2C; [1]
  inhibition at 0.1 µM: 1.4%
  inhibition at 1 µM: -1.4%
PIP4K2C; [2]
  inhibition at 0.1 µM: -48%
  inhibition at 1 µM: 0.9%
PYK2; PYK2, 0.1 μM
  inhibition at 0.1 µM: 5.9%
PYK2; PYK2, 1 μM
  inhibition at 1 µM: 19.5%
OSR1; OSR1, 0.1 μM
  inhibition at 0.1 µM: -7.8%
OSR1; OSR1, 1 μM
  inhibition at 1 µM: -4%
IRAK1; IRAK1, 1 μM
  inhibition at 1 µM: -9.1%
IRAK1
  inhibition at 0.1 µM: -13.8%
GPRK6; GPRK6, 0.1 μM
  inhibition at 0.1 µM: 8.9%
GPRK6; GPRK6, 1 μM
  inhibition at 1 µM: 23.7%
GCN2; GCN2, 0.1 μM
  inhibition at 0.1 µM: 0.1%
GCN2; GCN2, 1 μM
  inhibition at 1 µM: -25.1%
JNK1, JNK2, JNK3; 0.1 μM
  percent inhibition: 7.1%
JNK1, JNK2, JNK3; 1 μM
  percent inhibition: 7.7%
CaMK1a; CaMK1a, 0.1 μM
  inhibition at 0.1 µM: 2%
CaMK1a; CaMK1a, 1 μM
  inhibition at 1 µM: 6.3%
p70S6Kb; p70S6Kb, 0.1 μM
  inhibition at 0.1 µM: 15%
p70S6Kb; p70S6Kb, 1 μM
  inhibition at 1 µM: 10.1%
MST3; MST3, 0.1 μM
  inhibition at 0.1 µM: 10.9%
MST3; MST3, 1 μM
  inhibition at 1 µM: 28.4%
JAK1 domain2; JAK1 domain2, 0.1 μM
  inhibition at 0.1 µM: -8.1%
JAK1 domain2; JAK1 domain2, 1 μM
  inhibition at 1 µM: -13.7%
MAP2K3; MAP2K3, 0.1 μM
  inhibition at 0.1 µM: 14.4%
MAP2K3; MAP2K3, 1 μM
  inhibition at 1 µM: -9%
MAP3K5; MAP3K5, 0.1 μM
  inhibition at 0.1 µM: 6.2%
MAP3K5; MAP3K5, 1 μM
  inhibition at 1 µM: 2.1%
FYN; FYN, 0.1 μM
  inhibition at 0.1 µM: 6.7%
FYN; FYN, 1 μM
  inhibition at 1 µM: -10.1%
SRC; SRC, 0.1 μM
  inhibition at 0.1 µM: 1.5%
SRC; SRC, 1 μM
  inhibition at 1 µM: 9.7%
EphA1; EphA1, 0.1 μM
  inhibition at 0.1 µM: -9.5%
EphA1; EphA1, 1 μM
  inhibition at 1 µM: 19.6%
p70S6K; p70S6K, 0.1 μM
  inhibition at 0.1 µM: 23%
p70S6K; p70S6K, 1 μM
  inhibition at 1 µM: 18.9%
IKKe; IKKe, 0.1 μM
  inhibition at 0.1 µM: 2.6%
IKKe; IKKe, 1 μM
  inhibition at 1 µM: 17.7%
TAO1, TAO3; 0.1 μM
  percent inhibition: −24%
TAO1, TAO3; 1 μM
  percent inhibition: −14.9%
RSK1, RSK2, RSK3 domain1; 0.1 μM
  percent inhibition: 3%
RSK1, RSK2, RSK3 domain1; 1 μM
  percent inhibition: 18.7%
CDK2; CDK2, 0.1 μM
  inhibition at 0.1 µM: -12.1%
CDK2; CDK2, 1 μM
  inhibition at 1 µM: 9.5%
RSK2 domain1; RSK2 domain1, 0.1 μM
  inhibition at 0.1 µM: -6.8%
RSK2 domain1; RSK2 domain1, 1 μM
  inhibition at 1 µM: 5.6%
MAST3; MAST3, 0.1 μM
  inhibition at 0.1 µM: 9%
MAST3; MAST3, 1 μM
  inhibition at 1 µM: -6.7%
LATS1; LATS1, 0.1 μM
  inhibition at 0.1 µM: 4.2%
LATS1; LATS1, 1 μM
  inhibition at 1 µM: -16.2%
MARK2; MARK2, 0.1 μM
  inhibition at 0.1 µM: 10.1%
MARK2; MARK2, 1 μM
  inhibition at 1 µM: 41.6%
AKT2, AKT3; 0.1 μM
  percent inhibition: 1.6%
AKT2, AKT3; 1 μM
  percent inhibition: 10.7%
AMPKa1, AMPKa2; 0.1 μM
  percent inhibition: 10.8%
AMPKa1, AMPKa2; 1 μM
  percent inhibition: 49.7%
JAK1; JAK1, 0.1 μM
  inhibition at 0.1 µM: 15%
JAK1; JAK1, 1 μM
  inhibition at 1 µM: 54.2%
MAP2K1; MAP2K1, 0.1 μM
  inhibition at 0.1 µM: 3.5%
MAP2K1; MAP2K1, 1 μM
  inhibition at 1 µM: 17%
BRAF; BRAF, 0.1 μM
  inhibition at 0.1 µM: -6.5%
BRAF; BRAF, 1 μM
  inhibition at 1 µM: -51.5%
HPK1; HPK1, 0.1 μM
  inhibition at 0.1 µM: -9.7%
HPK1; HPK1, 1 μM
  inhibition at 1 µM: -14.9%
LKB1; LKB1, 0.1 μM
  inhibition at 0.1 µM: -1.1%
LKB1; LKB1, 1 μM
  inhibition at 1 µM: -14%
IRAK3; IRAK3, 0.1 μM
  inhibition at 0.1 µM: 30.1%
IRAK3; IRAK3, 1 μM
  inhibition at 1 µM: 68.7%
CaMK2d; CaMK2d, 0.1 μM
  inhibition at 0.1 µM: -45.3%
CaMK2d; CaMK2d, 1 μM
  inhibition at 1 µM: -38.1%

## N#Cc1cccc(-c2c[nH]c3ncnc(N4CCOCC4)c23)c1 [Example 4, 3-[4-(Morpholin-4-yl)-7H-pyrrolo[2,3-d]pyrimidin-5-yl]benzonitrile]
PIP4K2C; [3]
  inhibition at 0.1 µM: 3.1%
  inhibition at 1 µM: 58.4%
PIP4K2C; [4]
  inhibition at 0.1 µM: 9.3%
  inhibition at 1 µM: 54.3%
PYK2
  inhibition at 0.1 µM: -3.9%
  inhibition at 1 µM: 2.5%
OSR1
  inhibition at 0.1 µM: -23.1%
  inhibition at 1 µM: -55.4%
IRAK1
  inhibition at 0.1 µM: -2.9%
  inhibition at 1 µM: 2.1%
GPRK6
  inhibition at 0.1 µM: -3.9%
  inhibition at 1 µM: 10.9%
GCN2
  inhibition at 0.1 µM: -13.6%
  inhibition at 1 µM: 0.6%
JNK1, JNK2, JNK3; 0.1 μM
  percent inhibition: −5.3%
JNK1, JNK2, JNK3; 1 μM
  percent inhibition: 5.4%
CaMK1a
  inhibition at 0.1 µM: -9.2%
  inhibition at 1 µM: 1.9%
p70S6Kb
  inhibition at 0.1 µM: 11.4%
  inhibition at 1 µM: 18.5%
MST3
  inhibition at 0.1 µM: 0.1%
  inhibition at 1 µM: 46.2%
JAK1 domain2
  inhibition at 0.1 µM: -6.2%
  inhibition at 1 µM: 18.9%
MAP2K3
  inhibition at 0.1 µM: -12.5%
  inhibition at 1 µM: 6.2%
MAP3K5
  inhibition at 0.1 µM: 3.3%
  inhibition at 1 µM: 21.3%
FYN
  inhibition at 0.1 µM: -1.9%
  inhibition at 1 µM: -9.1%
SRC
  inhibition at 0.1 µM: -18.3%
  inhibition at 1 µM: -2.2%
EphA1
  inhibition at 0.1 µM: -17%
  inhibition at 1 µM: -2.5%
p70S6K
  inhibition at 0.1 µM: -9%
  inhibition at 1 µM: 11.1%
IKKe
  inhibition at 0.1 µM: -7%
  inhibition at 1 µM: 7.4%
TAO1, TAO3; 0.1 μM
  percent inhibition: −6.5%
TAO1, TAO3; 1 μM
  percent inhibition: 5.9%
RSK1, RSK2, RSK3 domain1; 0.1 μM
  percent inhibition: −0.4%
RSK1, RSK2, RSK3 domain1; 1 μM
  percent inhibition: 13.4%
CDK2
  inhibition at 0.1 µM: 11%
  inhibition at 1 µM: 9.2%
RSK2 domain1
  inhibition at 0.1 µM: -6%
  inhibition at 1 µM: -11.2%
MAST3
  inhibition at 0.1 µM: 2.6%
  inhibition at 1 µM: 0.8%
LATS1
  inhibition at 0.1 µM: -4.8%
  inhibition at 1 µM: 5.4%
MARK2
  inhibition at 0.1 µM: -4.7%
  inhibition at 1 µM: 27.3%
AKT2, AKT3; 0.1 μM
  percent inhibition: −2.6%
AKT2, AKT3; 1 μM
  percent inhibition: 6.8%
AMPKa1, AMPKa2; 0.1 μM
  percent inhibition: −4.5%
AMPKa1, AMPKa2; 1 μM
  percent inhibition: 32.5%
JAK1
  inhibition at 0.1 µM: -9.3%
  inhibition at 1 µM: 5%
MAP2K1
  inhibition at 0.1 µM: -17.2%
  inhibition at 1 µM: 14%
BRAF
  inhibition at 0.1 µM: 1.2%
  inhibition at 1 µM: -1.2%
HPK1
  inhibition at 0.1 µM: -1.5%
  inhibition at 1 µM: 5.7%
LKB1
  inhibition at 0.1 µM: 3.5%
  inhibition at 1 µM: 16.5%
IRAK3
  inhibition at 0.1 µM: 29.8%
  inhibition at 1 µM: 33.7%
CaMK2d
  inhibition at 0.1 µM: -0.4%
  inhibition at 1 µM: 10.8%
